Our source for the EC50 values is US11472788B2, “Benzoimidazoles as selective inhibitors of indoleamine 2,3-dioxygenases” (BEIGENE, LTD., priority 2017, dated 2022).

Each structure is given as a SMILES string. Some results are limits rather than exact numbers.

Chain of cellular IDO1 in HeLa cells (P14902 whole entry): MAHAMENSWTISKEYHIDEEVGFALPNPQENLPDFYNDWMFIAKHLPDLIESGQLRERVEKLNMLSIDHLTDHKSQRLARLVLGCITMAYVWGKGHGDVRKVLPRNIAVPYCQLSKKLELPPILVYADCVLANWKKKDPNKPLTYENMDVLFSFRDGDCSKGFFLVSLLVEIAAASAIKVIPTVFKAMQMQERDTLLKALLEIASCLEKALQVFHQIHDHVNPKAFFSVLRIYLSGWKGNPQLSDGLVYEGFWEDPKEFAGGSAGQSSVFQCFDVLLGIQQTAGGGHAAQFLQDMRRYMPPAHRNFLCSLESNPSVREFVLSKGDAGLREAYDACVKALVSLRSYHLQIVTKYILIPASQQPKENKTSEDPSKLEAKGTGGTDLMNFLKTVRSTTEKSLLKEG

This assay concerns the target cellular IDO1 in HeLa cells (Homo sapiens (Human), UniProt P14902). Put plainly: HeLa Cell-Based IDO1 Kyn (Kynurenine) Production Assay. As to conditions: IFN-γ induced IDO1, 48 hours incubation, Kyn absorbance at 480 nm. As to the method: HeLa Cell-Based IDO1 Kyn (Kynurenine) Production Assay:
The inhibitory activity of IDO1 inhibitors is determined by using a colorimetric reaction to measure Kyn generated from L-Trp (L-Tryptophon) oxidation by cellular IDO1 in HeLa cells after induction of IDO1 expression by IFN-γ.
Hela cells were obtained from the American Type Culture Collection and recovered in 10% FBS-containing phenol red-free DMEM medium. Cells were plated onto a 96-well plate (100 μl/well) at 8000 cells per well and kept at 37° C. in a humidified incubator supplied with 5% CO2. 4 hours later, Human recombinant IFN-γ (8901SC, CST) was added to cells (final concentration 100 ng/mL) to stimulate endogenous IDOL. Compounds at different concentrations diluted in dimethylsulfoxide (DMSO) were added simultaneously with IFN-γ and 0.4 mM L-Trp. Cells were kept at 37° C. in a humidified incubator supplied with 5% CO2. After 48 hours of incubation, 100 μl supernatant from each well was removed to a new plate. The protein in the medium was precipitated with the addition of 8 μl 6N trichloroacetic acid. The plate was incubated at 60° C. for 30 minutes and then centrifugation at 2500 rpm for 10 minutes to remove sediments. 80 μl supernatants were carefully removed to a new clean plate and added with an equal volume of 2% 4-(Dimethylamino)benzaldehyde (D2004, sigma) dissolved in glacial acetic acid. The absorbance at 480 nm wavelength derived from Kyn was measured using a PHERAstar FS plate reader (BMG LABTECH). The IC5C for each compound was derived from fitting the dose-response data to the four-parameter logistic model by using XLfit software (IDBS).
Regarding `C[C@@H](c1nc2cc(C(=O)N(C)C)ccc2[nH]1)[C@H]1CC[C@@H](c2ccnc3ccc(F)cc32)CC1` [Example B12, 2-((R)-1-((1s,4S)-4-(6-fluoroquinolin-4-yl)cyclohexyl)ethyl)-N,N-dimethyl-1H-benzo[d]imidazole-5-carboxamide], the concentration giving a half-maximal response (EC50) came out at 46 nM.

For `CCOC(=O)c1ccc2[nH]c([C@H](C)[C@H]3CC[C@@H](c4ccnc5ccc(F)cc54)CC3)nc2c1` [Example B17, ethyl 2-((R)-1-((1s,4S)-4-(6-fluoroquinolin-4-yl)cyclohexyl)ethyl)-1H-benzo[d]imidazole-5-carboxylate], a half-maximal response (EC50) required 0.58 nM.

Consider `C[C@H](c1nc2ccc(Cl)cc2[nH]1)C1CCC(c2cnc3ccccc3c2)CC1` (stereo partly drawn) [Example B25a, (S)-3-(4-(1-(6-chloro-1H-benzo[d]imidazol-2-yl)ethyl)cyclohexyl)quinoline], for which the EC50 worked out at 5.1 nM.

In the case of `C[C@@H](c1nc2ccc(Cl)cc2[nH]1)C1CCC(c2cnc3ccccc3c2)CC1` (stereo partly drawn) [Example B25b, (R)-3-(4-(1-(6-chloro-1H-benzo[d]imidazol-2-yl)ethyl)cyclohexyl)quinoline], the midpoint of the response, the EC50, lay at 3.1 nM.

`C[C@@H](c1nc2c(Cl)c(F)cc(F)c2[nH]1)[C@H]1CC[C@@H](c2ccnc3ccc(F)cc32)CC1` [Example B123, 4-((1S,4s)-4-((R)-1-(4-chloro-5,7-difluoro-1H-benzo[d]imidazol-2-yl)ethyl)cyclohexyl)-6-fluoroquinoline]: a half-maximal response (EC50) required 6.79 nM.

For the compound `C[C@@H](c1nc2c(F)c(F)cc(Cl)c2[nH]1)[C@H]1CC[C@@H](c2ccnc3ccc(F)cc32)CC1` [Example B124, 4-((1S,4s)-4-((R)-1-(7-chloro-4,5-difluoro-1H-benzo[d]imidazol-2-yl)ethyl)cyclohexyl)-6-fluoroquinoline], a half-maximal response (EC50) required 16.4 nM.

In the case of `C[C@@H](c1nc2c(Cl)c(F)c(F)cc2[nH]1)[C@H]1CC[C@@H](c2ccnc3ccc(F)cc32)CC1` [Example B125, 4-((1S,4s)-4-((R)-1-(4-chloro-5,6-difluoro-1H-benzo[d]imidazol-2-yl)ethyl)cyclohexyl)-6-fluoroquinoline], the half-maximal effective concentration (EC50) came out at 8.79 nM.

For `C[C@@H](c1nc2ccc(NS(C)(=O)=O)cc2[nH]1)[C@H]1CC[C@@H](c2ccnc3ccc(F)cc32)CC1` [Example B136, N-(2-((R)-1-((1s,4S)-4-(6-fluoroquinolin-4-yl)cyclohexyl)ethyl)-1H-benzo[d]imidazol-6-yl)methanesulfonamide], the EC50 worked out at 296 nM.

The compound `C[C@@H](c1nc2ccc(S(C)(=O)=O)cc2[nH]1)[C@H]1CC[C@@H](c2ccnc3ccc(F)cc32)CC1` [Example B138, 6-fluoro-4-((1S,4s)-4-((R)-1-(6-(methylsulfonyl)-1H-benzo[d]imidazol-2-yl)ethyl)cyclohexyl)quinoline] gave an EC50 of 18.8 nM.

Compound `COC(=O)c1cc(C)c2nc([C@H](C)[C@H]3CC[C@@H](c4ccnc5ccc(F)cc54)CC3)[nH]c2c1` [Example B141, methyl 2-((R)-1-((1s,4S)-4-(6-fluoroquinolin-4-yl)cyclohexyl)ethyl)-4-methyl-1H-benzo[d]imidazole-6-carboxylate] returned an EC50 of 6.89 nM.

`CC(c1nc2cc3c(=O)[nH]cnc3cc2[nH]1)[C@H]1CC[C@@H](c2ccnc3ccc(F)cc32)CC1` (stereo partly drawn) [Example B151, 2-(1-((1s,4s)-4-(6-fluoroquinolin-4-yl)cyclohexyl)ethyl)-3,7-dihydro-8H-imidazo[4,5-g]quinazolin-8-one] displayed an EC50 of 82.3 nM.

Consider `C[C@@H](c1nc2cc(-c3ncccn3)ccc2[nH]1)[C@H]1CC[C@@H](c2ccnc3ccc(F)cc32)CC1` [Example B157, 6-fluoro-4-((1S,4s)-4-((R)-1-(5-(pyrimidin-2-yl)-1H-benzo[d]imidazol-2-yl)ethyl)cyclohexyl)quinoline], for which the response was half-maximal at 3.8 nM (EC50).

Consider `CC(c1nc2cc3c(cc2[nH]1)CCC(=O)N3)[C@H]1CC[C@@H](c2ccnc3ccc(F)cc32)CC1` (stereo partly drawn) [Example B159, 2-(1-((1s,4s)-4-(6-fluoroquinolin-4-yl)cyclohexyl)ethyl)-1,5,7,8-tetrahydro-6H-imidazo[4,5-g]quinolin-6-one], for which the 50% effective concentration (EC50) was determined as 67.7 nM.

On to `CC(c1nc2cc(C(=O)N(C)C)ccc2[nH]1)[C@H]1CC[C@@H](c2ccnc3ccc(F)cc32)CC1` (stereo partly drawn) [Example B160, 2-(1-((1s,4s)-4-(6-fluoroquinolin-4-yl)cyclohexyl)ethyl)-N,N-dimethyl-1H-benzo[d]imidazole-5-carboxamide], for which the half-maximal effective concentration (EC50) came out at 46 nM.

For the compound `CC(c1nc2ccc(C(=O)O)cc2[nH]1)[C@H]1CC[C@@H](c2ccnc3ccc(F)cc32)CC1` (stereo partly drawn) [Example B163, 2-(1-((1s,4s)-4-(6-fluoroquinolin-4-yl)cyclohexyl)ethyl)-1H-benzo[d]imidazole-6-carboxylic acid], the EC50 is 567 nM.

In the case of `CC(c1nc2ccc(C(=O)NC3CCC3)cc2[nH]1)[C@H]1CC[C@@H](c2ccnc3ccc(F)cc32)CC1` (stereo partly drawn) [Example B164, N-cyclobutyl-2-(1-((1s,4s)-4-(6-fluoroquinolin-4-yl)cyclohexyl)ethyl)-1H-benzo[d]imidazole-6-carboxamide], the EC50 is 5.8 nM.

`CC(c1nc2cc3ccccc3cc2[nH]1)[C@H]1CC[C@@H](c2ccnc3ccc(F)cc32)CC1` (stereo partly drawn) [Example B166, 2-(1-((1s,4s)-4-(6-fluoroquinolin-4-yl)cyclohexyl)ethyl)-1H-naphtho[2,3-d]imidazole] registered a concentration for a half-maximal effect (EC50) of 251 nM.

Turning to `CC(c1nc2ccc(S(C)(=O)=O)cc2[nH]1)[C@H]1CC[C@@H](c2ccnc3ccc(F)cc32)CC1` (stereo partly drawn) [Example B167, 6-fluoro-4-((1s,4s)-4-(1-(6-(methylsulfonyl)-1H-benzo[d]imidazol-2-yl)ethyl)cyclohexyl)quinoline], a half-maximal effect (EC50) was put at 18.8 nM.

As to `CC(c1nc2ccc(N)cc2[nH]1)[C@H]1CC[C@@H](c2ccnc3ccc(F)cc32)CC1` (stereo partly drawn) [Example B169, 2-(1-((1s,4s)-4-(6-fluoroquinolin-4-yl)cyclohexyl)ethyl)-1H-benzo[d]imidazol-6-amine], the midpoint of the response, the EC50, lay at 19.6 nM.

Compound `CC(c1nc2c(F)c(F)cc(Cl)c2[nH]1)[C@H]1CC[C@@H](c2ccnc3ccc(F)cc32)CC1` (stereo partly drawn) [Example B172, 4-((1s,4s)-4-(1-(7-chloro-4,5-difluoro-1H-benzo[d]imidazol-2-yl)ethyl)cyclohexyl)-6-fluoroquinoline] had a 50% effective concentration (EC50) of 16.4 nM.

Compound `C[C@@H](c1nc2cc3ccccc3cc2[nH]1)[C@H]1CC[C@@H](c2ccnc3ccc(F)cc32)CC1` [Example B173, 2-((R)-1-((1s,4S)-4-(6-fluoroquinolin-4-yl)cyclohexyl)ethyl)-1H-naphtho[2,3-d]imidazole] had a 50% effective concentration (EC50) of 12.7 nM.

In turn, `C[C@@H](c1nc2ccc(S(C)(=O)=O)cc2[nH]1)[C@H]1CC[C@H](c2ccnc3ccc(F)cc32)CC1` [Example B178, 6-fluoro-4-((1R,4r)-4-((R)-1-(6-(methylsulfonyl)-1H-benzo[d]imidazol-2-yl)ethyl)cyclohexyl)quinoline] registered an EC50 of 283 nM.

`CC(=O)Nc1ccc2nc([C@H](C)[C@H]3CC[C@@H](c4ccnc5ccc(F)cc54)CC3)[nH]c2c1` [Example B179, N-(2-((R)-1-((1r,4R)-4-(6-fluoroquinolin-4-yl)cyclohexyl)ethyl)-1H-benzo[d]imidazol-6-yl)acetamide] had an EC50 of 36.2 nM.

On to `C[C@@H](c1nc2ccc(NS(C)(=O)=O)cc2[nH]1)[C@H]1CC[C@@H](c2ccnc3ccc(F)cc32)CC1` [Example B180, N-(2-((R)-1-((1r,4R)-4-(6-fluoroquinolin-4-yl)cyclohexyl)ethyl)-1H-benzo[d]imidazol-6-yl)methanesulfonamide], for which the EC50 was 384 nM.

Consider `CC(c1nc2cc(C(=O)Nc3ccccc3)ccc2[nH]1)[C@H]1CC[C@@H](c2ccnc3ccc(F)cc32)CC1` (stereo partly drawn) [Example B182, 2-(1-((1s,4s)-4-(6-fluoroquinolin-4-yl)cyclohexyl)ethyl)-N-phenyl-1H-benzo[d]imidazole-5-carboxamide], for which the response was half-maximal at 86.7 nM (EC50).

`CC(c1nc2cc(C(=O)NCC3(O)CCC3)ccc2[nH]1)[C@H]1CC[C@@H](c2ccnc3ccc(F)cc32)CC1` (stereo partly drawn) [Example B183, 2-(1-((1s,4s)-4-(6-fluoroquinolin-4-yl)cyclohexyl)ethyl)-N-((1-hydroxycyclobutyl)methyl)-1H-benzo[d]imidazole-5-carboxamide]: the 50% effective concentration (EC50) is over 1000 nM.

For the compound `CC(c1nc2cc(C(=O)NCC3(O)CCC3)ccc2[nH]1)[C@H]1CC[C@H](c2ccnc3ccc(F)cc32)CC1` (stereo partly drawn) [Example B184, 2-(1-((1r,4r)-4-(6-fluoroquinolin-4-yl)cyclohexyl)ethyl)-N-((1-hydroxycyclobutyl)methyl)-1H-benzo[d]imidazole-5-carboxamide], the EC50 is over 1000 nM.
